These results are taken from patent US12209102B2, “Heterocyclic compounds and uses thereof” (Kumquat Biosciences Inc., priority 2022, dated 2025).

One assay concerns the target T1, K-Ras WT (Homo sapiens, UniProt P01116).
T1 construct: made in house; host or cells: E. coli BL21 (DE3)
The assay can be described thus: HTRF resonance energy transfer assay, K-Ras WT / SOS1 interaction. Format: biochemical. The settings on record: HTRF assay of Example 5; read-out: IC50 against K-Ras WT. A digest of the protocol: (§1)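 GST-tagged K-Ras (WT or mutant) bound to anti-GST-Eu donor was mixed with His-hSOS1 bound to anti-6His-XL665 acceptor in ~5 mM HEPES pH 7.4, 150 mM NaCl, 1 mM DTT, 0.05% BSA, 0.0025% Igepal. HTRF (ex 337, em 620/665 nm) was read after ~10 min or longer. IC50 came from the 665/620 ratio over duplicates from 10 μM to 0.01 μM.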

Another assay concerns the target T2, K-Ras G12V (Homo sapiens, UniProt P01116, G12V).
T2 construct: made in house; host or cells: E. coli BL21 (DE3)
The assay can be described thus: HTRF resonance energy transfer assay, K-Ras G12V / SOS1 interaction. Format: biochemical. The settings on record: HTRF assay of Example 5; read-out: IC50 against K-Ras G12V. A digest of the protocol: as §1

The next assay has as its target T3, K-Ras G12D (Homo sapiens, UniProt P01116, G12D).
T3 construct: made in house; host or cells: E. coli BL21 (DE3)
The assay can be described thus: HTRF resonance energy transfer assay, K-Ras G12D / SOS1 interaction. In kind it is biochemical. To be noted: HTRF assay of Example 5; read-out: IC50 against K-Ras G12D. The essentials:
as §1

The next assay deals with A549 cells. Put plainly: Ras cellular assay, growth of cells with K-Ras G12S mutation (CellTiter-Glo). Format: cell-based. To be noted: Homo sapiens, cell growth, Example 9, G12S mutation, read-out: IC50 against A549 cells. The essentials:
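A549 cells (K-Ras G12S) in RPMI-1640 with 10% heat-inactivated FBS, seeded e.g. 800 per well in standard or ultra-low-attachment 384-well plates, treated next day with a dilution series (e.g. 10-point, 3-fold). Viability by CellTiter-Glo luminescence about 6 days later; IC50 from four-parameter fit.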

In another assay the test system is GP2D cells. The assay can be described thus: Ras cellular assay, growth of cells with K-Ras G12D mutation (CellTiter-Glo). Format: cell-based. The settings on record: cell growth, Example 9, G12D mutation, read-out: IC50 against GP2D cells.
A further assay concerns the target T4, K-Ras G12S (Homo sapiens, UniProt P01116, G12S).
T4 construct: made in house; host or cells: E. coli BL21 (DE3)
Put plainly: HTRF resonance energy transfer assay, K-Ras G12S / SOS1 interaction. In kind it is biochemical. The settings on record: HTRF assay of Example 5; read-out: IC50 against K-Ras G12S. A digest of the protocol: as §1

Another assay deals with SW620 cells. Put plainly: Ras cellular assay, growth of cells with K-Ras G12V mutation (CellTiter-Glo). In kind it is cell-based. The settings on record: Homo sapiens, SW-620; cell growth, Example 9, G12V mutation; read-out: IC50 against SW620 cells. A digest of the protocol:
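SW620 (K-Ras G12V) cells, e.g. 800/well in RPMI-1640 with 10% heat-inactivated FBS on standard or ultra-low attachment plates, were dosed the day after plating with e.g. a 10-point 3-fold series. Viability by CellTiter-Glo luminescence about 6 days later; IC50 from four-parameter fit.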

A value given as a limit tells only on which side of the number the result lay.

T4 sequence (P01116 1-188 isoform P01116-2 G12S): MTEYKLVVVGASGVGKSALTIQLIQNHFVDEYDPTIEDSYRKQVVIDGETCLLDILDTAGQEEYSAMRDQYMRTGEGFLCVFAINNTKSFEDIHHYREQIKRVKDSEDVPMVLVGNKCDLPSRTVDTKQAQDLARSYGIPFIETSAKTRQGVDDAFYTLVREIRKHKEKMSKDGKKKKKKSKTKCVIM
T3 sequence (P01116 1-188 isoform P01116-2 G12D): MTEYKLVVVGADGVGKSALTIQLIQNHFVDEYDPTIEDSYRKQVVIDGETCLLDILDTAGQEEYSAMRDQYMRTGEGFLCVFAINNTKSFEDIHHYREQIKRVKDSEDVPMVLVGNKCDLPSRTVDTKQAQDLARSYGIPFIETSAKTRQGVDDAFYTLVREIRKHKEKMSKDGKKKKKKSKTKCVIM
T1 sequence (P01116 1-188 isoform P01116-2): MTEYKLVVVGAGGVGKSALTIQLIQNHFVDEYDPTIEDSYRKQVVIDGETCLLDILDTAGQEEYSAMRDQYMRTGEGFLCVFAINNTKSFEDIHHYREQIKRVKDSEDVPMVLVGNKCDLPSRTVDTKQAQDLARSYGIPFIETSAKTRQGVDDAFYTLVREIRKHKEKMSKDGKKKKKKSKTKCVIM
T2 sequence (P01116 1-188 isoform P01116-2 G12V): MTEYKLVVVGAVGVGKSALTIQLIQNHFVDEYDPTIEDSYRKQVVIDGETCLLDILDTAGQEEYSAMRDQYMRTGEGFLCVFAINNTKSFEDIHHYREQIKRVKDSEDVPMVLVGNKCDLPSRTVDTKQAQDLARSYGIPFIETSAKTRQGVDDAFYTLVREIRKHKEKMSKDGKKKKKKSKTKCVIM

Regarding `CCN1CCOc2c(Cl)c(-c3ccc(F)c4sc(N)c(C#N)c34)c(F)c3nc(OC[C@@]45CCCN4C[C@H](F)C5)nc1c23` [Compound 625, 2-amino-4-(8-chloro-4-ethyl-10-fluoro-2-(((2R,7aS)-2-fluorotetrahydro-1H-pyrrolizin-7a(5H)-yl)methoxy)-5,6-dihydro-4H-[1,4]oxazepino[5,6,7-de]quinazolin-9-yl)-7-fluorobenzo[b]thiophene-3-carbonitrile], the IC50 on K-Ras WT is below 100 nM; at K-Ras G12V, below 100 nM; at K-Ras G12D, below 100 nM; in the assay with A549 cells it was below 5000 nM; in the assay with GP2D cells, below 500 nM; at K-Ras G12S, below 100 nM.

In the case of `N#Cc1c(N)sc2c(F)ccc(-c3c(Cl)c4c5c(nc(OC[C@@]67CCCN6C[C@H](F)C7)nc5c3F)N(CC3CC3C#N)CCO4)c12` (stereo partly drawn) [Compound 962, 2-amino-4-(8-chloro-4-((2-cyanocyclopropyl)methyl)-10-fluoro-2-(((2R,7aS)-2-fluorotetrahydro-1H-pyrrolizin-7a(5H)-yl)methoxy)-5,6-dihydro-4H-[1,4]oxazepino[5,6,7-de]quinazolin-9-yl)-7-fluorobenzo[b]thiophene-3-carbonitrile], the half-inhibitory concentration (IC50) is below 5000 nM in the assay with A549 cells, below 500 nM in the assay on GP2D cells and below 5000 nM in the assay on SW620 cells.

For `CC1Oc2c(Cl)c(-c3ccc(F)c4sc(N)c(C#N)c34)c(F)c3nc(OC[C@@]45CCCN4C[C@H](F)C5)nc(c23)N(CC(F)F)C1CC#N` (stereo partly drawn) [Compound 1015, 2-amino-4-(8-chloro-5-(cyanomethyl)-4-(2,2-difluoroethyl)-10-fluoro-2-(((2R,7aS)-2-fluorotetrahydro-1H-pyrrolizin-7a(5H)-yl)methoxy)-6-methyl-5,6-dihydro-4H-[1,4]oxazepino[5,6,7-de]quinazolin-9-yl)-7-fluorobenzo[b]thiophene-3-carbonitrile], the IC50 in the assay with A549 cells was below 5000 nM; in the assay on GP2D cells it was below 500 nM; in the assay with SW620 cells, below 5000 nM.

For `N#Cc1c(N)sc2c(F)ccc(-c3c(Cl)c4c5c(nc(OC[C@@]67CCCN6C[C@H](F)C7)nc5c3F)N(CC(F)F)C(CO)CO4)c12` (stereo partly drawn) [Compound 1037, 2-amino-4-(8-chloro-4-(2,2-difluoroethyl)-10-fluoro-2-(((2R,7aS)-2-fluorotetrahydro-1H-pyrrolizin-7a(5H)-yl)methoxy)-5-(hydroxymethyl)-5,6-dihydro-4H-[1,4]oxazepino[5,6,7-de]quinazolin-9-yl)-7-fluorobenzo[b]thiophene-3-carbonitrile], the results for the IC50 with A549 cells, in the assay with GP2D cells and in the assay on SW620 cells were below 5000 nM, below 500 nM and below 5000 nM, respectively.

As to `N#Cc1c(N)sc2c(F)ccc(-c3c(Cl)c4c5c(nc(OC[C@@]67CCCN6C[C@H](F)C7)nc5c3F)N(CC(F)F)C(C(F)F)CO4)c12` (stereo partly drawn) [Compound 1105, 2-amino-4-(8-chloro-4-(2,2-difluoroethyl)-5-(difluoromethyl)-10-fluoro-2-(((2R,7aS)-2-fluorotetrahydro-1H-pyrrolizin-7a(5H)-yl)methoxy)-5,6-dihydro-4H-[1,4]oxazepino[5,6,7-de]quinazolin-9-yl)-7-fluorobenzo[b]thiophene-3-carbonitrile], the IC50 at K-Ras WT is below 100 nM; on K-Ras G12D, below 100 nM; in the assay on A549 cells, below 5000 nM; in the assay with GP2D cells, below 500 nM; on K-Ras G12S it was below 100 nM; in the assay on SW620 cells it was below 5000 nM.

For `N#Cc1c(N)sc2c(F)ccc(-c3c(Cl)c4c5c(nc(OC[C@@]67CCCN6C[C@H](F)C7)nc5c3F)N(C3CC3)CCCO4)c12` [Compound 1204, 2-amino-4-(9-chloro-4-cyclopropyl-11-fluoro-2-(((2R,7aS)-2-fluorotetrahydro-1H-pyrrolizin-7a(5H)-yl)methoxy)-4,5,6,7-tetrahydro-[1,5]oxazocino[4,3,2-de]quinazolin-10-yl)-7-fluorobenzo[b]thiophene-3-carbonitrile], the IC50 with A549 cells is below 5000 nM; in the assay with GP2D cells it was below 500 nM; in the assay on SW620 cells, below 5000 nM.
